Test results reported in paper PMC8953856, “α/β-Peptides as Nanomolar Triggers of Lipid Raft-Mediated Endocytosis through GM1 Ganglioside Recognition” (Pharmaceutics, 2022).
No end group written: not given here.

Assays:
[1] = Protease assay with chymotrypsin; format: in vitro ADME; details: chymotrypsin (isolated protease) in buffer; 100 mM TRIS–HCl pH 8.0 with 10 mM CaCl2; peptide 100 mM (so in the source); 50 mL of 0.5 mg/mL chymotrypsin stock to 500 mL peptide solution (so in the source); samples at 2, 6, 25, 60 min; HPLC–MS; < 24 = peak not detected at 2 min, 3% detection limit
Method: (§1) Protease assays: Peptides were dissolved in 100 mM TRIS–HCl buffer (pH 8.0) containing 10 mM CaCl2 at 100 mM concentration. Chymotrypsin (Sigma-Aldrich, Budapest, Hungary) stock solution was 0.5 mg/mL in the same buffer. A total […] peptide solution was measured in a reaction vessel and […] protease stock was added. Samples of […] were taken after 2, 6, 25 and 60 min. The samples were diluted into […] 5% TFA aliquots. The samples were then injected into HPLC–MS using a Phenomenex C18-XB Peptide column (250 × 4.6 mm, […]).

[2] = Protease assay with trypsin; format: in vitro ADME; details: trypsin (isolated protease) in buffer; 100 mM TRIS–HCl pH 8.0 without CaCl2; peptide 100 mM (so in the source); protease stock 0.5 mg/mL; samples at 2, 6, 25, 60 min; HPLC–MS; < 24 = peak not detected at 2 min, 3% detection limit
Chymotrypsin = molecular target: T1, Chymotrypsin (Bos taurus, UniProt P00766); assay: Protease assay with chymotrypsin; format: in vitro ADME; details: chymotrypsin (isolated protease) in buffer; 100 mM TRIS–HCl pH 8.0 with 10 mM CaCl2; peptide 100 mM (so in the source); 50 mL of 0.5 mg/mL chymotrypsin stock to 500 mL peptide solution (so in the source); samples at 2, 6, 25, 60 min; HPLC–MS; < 24 = peak not detected at 2 min, 3% detection limit
T1 construct: purchased Sigma-Aldrich
Method: as §1

ganglioside GM1 = assay: Isothermal titration calorimetry (ITC) with GM1:DPC 1:5 bicelles; format: binding; details: 35 °C, GM1:DPC 1:5 (GM1 300 µM in syringe) injected into 15 µM ligand in cell, pH 7.2 phosphate buffer, one- or two-site fit, experiments repeated twice; for Kd: read-out: Binding affinities (KD) to ganglioside GM1
Method: Isothermal Titration Calorimetry: ITC was performed using a MicroCal VP-ITC microcalorimeter at 35 °C. The monosialoganglioside GM1 was obtained from Biosynth-Carbosynth (Bratislava, Slovakia, product code: OG03918, C73H131N3O31·xNa, HPLC purity > 95%). The n-dodecylphosphocholine (DPC) was obtained from Avanti (Alabaster, Alabama, product code: 850336, C17H38NO4P, purity > 99%). In individual titrations, 15 µL of solution containing GM1:DPC 1:5 was injected into the ligand solution in the cell from a computer-controlled 300 µL microsyringe at time intervals of 300 s. The GM1:DPC micelle mixture was prepared in the same pH 7.2 phosphate buffer as the ligand in the cell. The concentration of the ligand in the cell was 15 µM. The concentration of GM1 in the syringe was 300 µM. In control experiments, GM1:DPC was titrated into the cell containing buffer without ligand. To rule out lipid clustering, control measurements were performed with pure GM1 in the syringe, which yielded a […], indicating the GM1:DPC interaction in the micelles (Figure S6). No aggregation of the micelles was observed after titration, which rules out any secondary inter-particle effects induced by ligand binding. We note that such an uncontrolled aggregation phenomenon would have been detrimental to the very sensitive ITC detection. Our finding is in agreement with the literature results that mixed micelles of GM1 and DPC are readily formed. The experiments were repeated twice. The experimental data were fitted to one-binding-site or two-independent-site models with adjustable parameters of ΔHb1, Kd1, n1, and ΔHb2, Kd2, n2, respectively. Background subtraction and spline baseline correction was applied prior to the application of a generalized reduced gradient nonlinear least-squares procedure. […] Errors were estimated by using jack-knife resampling.

Molecule	half-life [1] [min]	half-life [2] [min]	Kd (ganglioside GM1) [µM]	other results
NCCCC[C@H](NC(=O)[C@H](Cc1ccc(O)cc1)NC(=O)[C@@H](N)Cc1c[nH]c2ccccc12)C(=O)N[C@@H](Cc1ccc(O)cc1)C(=O)N[C@H](CC(N)=O)Cc1c[nH]c2ccccc12 [WYKYWβ]	< 0.4	< 0.4		
NCCCC[C@H](NC(=O)[C@H](Cc1ccc(O)cc1)NC(=O)[C@@H](N)Cc1c[nH]c2ccccc12)C(=O)N[C@H](CC(=O)N[C@@H](Cc1c[nH]c2ccccc12)C(N)=O)Cc1ccc(O)cc1 [WYKYβW]	< 0.4	6.83		
NCCCC[C@@H](CC(=O)N[C@@H](Cc1ccc(O)cc1)C(=O)N[C@@H](Cc1c[nH]c2ccccc12)C(N)=O)NC(=O)[C@H](Cc1ccc(O)cc1)NC(=O)[C@@H](N)Cc1c[nH]c2ccccc12 [WYKβYW]				half-life (Chymotrypsin): 10.8 min
NCCCC[C@H](NC(=O)C[C@H](Cc1ccc(O)cc1)NC(=O)[C@@H](N)Cc1c[nH]c2ccccc12)C(=O)N[C@@H](Cc1ccc(O)cc1)C(=O)N[C@@H](Cc1c[nH]c2ccccc12)C(N)=O [WYβKYW]		15		half-life (Chymotrypsin): 1.25 min
NCCCC[C@H](NC(=O)[C@H](Cc1ccc(O)cc1)NC(=O)C[C@@H](N)Cc1c[nH]c2ccccc12)C(=O)N[C@@H](Cc1ccc(O)cc1)C(=O)N[C@@H](Cc1c[nH]c2ccccc12)C(N)=O [WβYKYW]	< 0.4	1.83		
AYKYW [Ala derivative of WYKYW, position 1]				Binding affinities (KD) to ganglioside GM1 (ganglioside GM1): n.f. ^[a]
WAKYW-NH2 [WAKYW]			5.75	
WYAYW-NH2 [WYAYW]			10.5	
WYKAW-NH2 [WYKAW]			1.69	
WYKYA-NH2 [WYKYA]			1.06	
